This is an account of results in patent US9803180B2, “S-adenosylmethionine (SAM) synthase variants for the synthesis of artificial cofactors” (LEIBNIZ-INSTITUT FUR PFLANZENBIOCHEMIE STIFTUNG DES …, priority 2013, dated 2017).

“Also recorded” adds a separate entry of the source.

What all share (format): biochemical
Series [1] can be described thus: Substrate spectrum: conversion of methionine and S-alkylhomocysteine derivatives by SAM synthase and variants. The settings on record: for substrate acceptance (which amino acid substrates are converted): in words. An excerpt: (§1) FIGS. 3A-3E show the rates of conversion of amino acid substrates catalyzed by the SAMS enzyme from Bacillus subtilis (FIG. 3A) and its variants I317V (FIG. 3B), I317A (FIG. 3C), I105V/I317A (FIG. 3D) or I105A/I317A (FIG. 3E) as a function of the substrate concentration. The reaction with L-methionine (open circles), D,L-methionine (closed circles), D,L-methionine-(methyl-D3) (x), D,L-ethionine (hatched circles), S-n-propyl-D,L-homocysteine (open triangles), S-n-butyl-D,L-homocysteine (closed triangles) or S-(2-methylvinyl)-D,L-homocysteine (diamonds) was assessed by spectrophotometric determination of phosphate which is released from the co-substrate ATP during the reaction.
For these studies, a series of S-alkylhomocysteines with linear (D,L-methionine-(methyl-D3), -ethionine, -propionine and -buthionine), branched (D,L-isopropionine and -isobuthionines), unsaturated (D,L-methylvinylhomocysteine) and functionalized (D,L-hydroxyethionine and -carboxymethionine) alkyl groups were synthesized from D,L-homocysteine thiolactone and tested for conversion by the cloned (wildtype) SAM synthase.
As derived from a homology model which is based on the crystal structure of the protein from E. coli (PDB code 1XRA), a hydrophobic cleft formed from two conserved isoleucine residues hinders the generation of cofactor analogues from amino acid substrates with bulky alkyl residues (FIG. 2). Accordingly, both residues were exchanged against less voluminous amino acids by site-directed mutagenesis.
To further probe the role of the proximate isoleucine residue I105 in substrate recognition, the variants I105V/I317A and I105A/I317A were generated. […] Compared to the wild-type enzyme (FIG. 3A), substrate specificity of the variant I105A/I317A (FIG. 3E) is inverted (S-n-propylhomocysteine>S-n-butylhomocysteine>ethionine>>methionine).

A short description of series [2]: Kinetic parameters for the conversion of S-alkylhomocysteines; standard SAM synthase assay, photometric detection of the cleaved phosphate.
Description: as §1
The kinetic parameters for the conversion of S-alkylhomocysteines by Bacillus subtitlis SAM synthase and its variants as shown in Table 1 were calculated from the conversion rates of methionine and analogues as a function of the substrate concentration […] which were determined by the standard SAM synthase assay known in the art, i.e. by photometric detection of the cleaved phosphate.

Series [3] is described as follows: Time course of formation of SAM and SAM derivatives, analyzed by HPTLC. The settings on record: racemic amino acid 10 mM, enzyme 10 mU ml^−1; in words. As to the method:
FIGS. 4A-4C show the formation of SAM and SAM derivatives by the SAM synthase enzyme from Bacillus subtilis (FIG. 4A) or its variants I317V (FIG. 4B) and I317A (FIG. 4C). The conversion of the L-enantiomer of methionine (closed circles), ethionine (hatched circles), S-n-propylhomocysteine (open triangles) and S-n-butylhomocysteine (closed triangles) from the corresponding racemic amino acid (10 mM) was performed in the presence of equal amounts of enzyme (10 mU ml^−1). The reactions were analyzed by HPTLC.
The suitability of the wild-type protein and of variants with appropriate substrate specificity (I317V and I317A) for the synthesis of SAM and analogues was evaluated by high-performance thin-layer chromatography. Since the enzymes were not inhibited by the D-enantiomer of the amino acid substrates, methionine and its derivatives could be advantageously applied as racemic mixture of its stereoisomeres in these reactions. […] Accordingly, transformation of methionine and ethionine by SAMS-I317V in preparative synthetic reactions led to high conversion rates for the amino acid substrates. The syntheses were performed similar to the kinetic experiments but in larger scale (200 μmol). After prolonged incubation (18 hours) to reach maximum product yield, 84 and 89% of the L-amino acid was converted. […]

Series [4] in a line: Preparative synthetic reactions (200 μmol): conversion of the L-amino acid. The settings on record: for conversion: 8 hours; for L-amino acid converted: 18 hours, 200 μmol scale. On the procedure:
The suitability of the wild-type protein and of variants with appropriate substrate specificity (I317V and I317A) for the synthesis of SAM and analogues was evaluated by high-performance thin-layer chromatography. Since the enzymes were not inhibited by the D-enantiomer of the amino acid substrates, methionine and its derivatives could be advantageously applied as racemic mixture of its stereoisomeres in these reactions. […] Accordingly, transformation of methionine and ethionine by SAMS-I317V in preparative synthetic reactions led to high conversion rates for the amino acid substrates. The syntheses were performed similar to the kinetic experiments but in larger scale (200 μmol). After prolonged incubation (18 hours) to reach maximum product yield, 84 and 89% of the L-amino acid was converted. In the production of the n-propyl- and n-butyl analogues of SAM by the variant I317A, 43% and 28% of conversion could be reached after 8 hours of reaction time. After product purification by cation exchange chromatography on SP-Sephadex C-25, SAM and its homologs could be recovered in final yields of 25, 17, 8 and 11%, respectively. As proven by ^1H NMR, the enzymatically produced SAM contained a high excess (≧90%) of the biologically active (S,S)-epimer.

Series [5] is described as follows: Activity of further position 317 SAM synthase variants (Example 4). From the text: The influence of position 317 on catalytic turnover and its crucial role in determination of substrate spectrum was additionally confirmed by introduction of other small- and medium-sized amino acid residues.
[6] abbreviates: substrate S-n-butyl-D,L-homocysteine.
Setting [7] is: substrate S-n-propyl-D,L-homocysteine.
The mark [8] stands for this setting: substrate S-(2-methylvinyl)-D,L-homocysteine.
The mark [9] stands for this setting: substrate D,L-methionine-(methyl-D3).

By Vmax is commonly meant the top rate of the reaction or transport when substrate is in excess. Regarding “I105A/I317A: I105A/I317A SAM synthase variant (SEQ ID NO: 4)”, the “substrate specificity (rank order)” value in series [1] (FIG. 3E, compared to wild-type) is recorded as “S-n-propylhomocysteine>S-n-butylhomocysteine>ethionine>>methionine”. Also, in series [1], the “substrate acceptance (which amino acid substrates are converted)” value (shortened to “substrate acceptance”) is listed as “acceptance of the artificial long-chain substrates only; also recorded: prefer long-chain substrates”. Also, the S0.5 in series [2] (substrate D,L-ethionine) is 3.91 ± 0.27 mM; in series [2] (setting [6]) it was “=10.0 mM”; in series [2] (setting [7]), “=10.0 mM”. The maximum rate (Vmax) in series [2] (substrate D,L-ethionine) was 3.0 ± 1.8 nmol/min/mg; in series [2] (substrate D,L-methionine), 0.8 ± 0.2 nmol/min/mg; in series [2] (setting [6]), “=4.0 ± 0.2 nmol min^-1 mg^-1”; in series [2] (setting [7]), “=10.8 ± 0.1 nmol min^-1 mg^-1”. The h came to 2.9 ± 0.4 in series [2] (substrate D,L-ethionine), 0.8 ± 0.1 in series [2] (setting [6]) and 1.0 ± 0.1 in series [2] (setting [7]).
Turning to “I105V/I317A: I105V/I317A SAM synthase variant (SEQ ID NO: 6)”, the “substrate acceptance” value in series [1] is “prefer long-chain substrates”. In addition, the S0.5 in series [2] (substrate D,L-ethionine) amounted to 4.25 ± 0.20 mM; in series [2] (substrate D,L-methionine), 3.77 ± 1.02 mM; in series [2] (setting [6]), 4.20 ± 0.41 mM; in series [2] (setting [7]), 1.86 ± 0.41 mM. Moreover, the Vmax came to 5.7 ± 0.3 nmol/min/mg in series [2] (substrate D,L-ethionine), 17.0 ± 2.0 nmol/min/mg in series [2] (substrate D,L-methionine), 11.9 ± 0.9 nmol/min/mg in series [2] (setting [6]) and 17.7 ± 1.5 nmol/min/mg in series [2] (setting [7]). The h is given as 4.6 ± 0.8 in series [2] (substrate D,L-ethionine), 1.0 ± 0.1 in series [2] (substrate D,L-methionine), 2.0 ± 0.2 in series [2] (setting [6]) and 1.0 ± 0.1 in series [2] (setting [7]).
For the substance “I317A: I317A SAM synthase variant (SEQ ID NO: 2) of Bacillus subtilis SAM synthase”, the “product inhibition by SAM” value in series [3] is listed as “much less affected by product inhibition; also recorded: less pronounced”. Moreover, the “substrate acceptance” value in series [1] was “active on ethionine, propionine, buthionine and the unsaturated D,L-methylvinylhomocysteine”. In addition, the results for the conversion in series [4] (production of n-butyl analogue of SAM) and in series [4] (production of n-propyl analogue of SAM) were 28% and 43%, respectively. Moreover, the S0.5 worked out at 2.99 ± 0.23 mM in series [2] (substrate D,L-ethionine); 0.92 ± 0.05 mM in series [2] (substrate D,L-methionine); 0.46 ± 0.02 mM in series [2] (substrate L-methionine); 0.79 ± 0.04 mM in series [2] (setting [8]); 3.56 ± 0.45 mM in series [2] (setting [6]); 0.90 ± 0.05 mM in series [2] (setting [7]). Also, the Vmax in series [2] (substrate D,L-ethionine) amounted to 44.1 ± 1.6 nmol/min/mg; in series [2] (substrate D,L-methionine), 37.7 ± 0.8 nmol/min/mg; in series [2] (substrate L-methionine), 34.8 ± 0.5 nmol/min/mg; in series [2] (setting [8]), 22.4 ± 0.4 nmol/min/mg; in series [2] (setting [6]) it was 35.4 ± 2.6 nmol/min/mg; in series [2] (setting [7]) it was 34.2 ± 0.7 nmol/min/mg. The h amounted to 1.2 ± 0.1 in series [2] (substrate D,L-ethionine); 1.1 ± 0.1 in series [2] (substrate D,L-methionine); 1.3 ± 0.1 in series [2] (substrate L-methionine); 1.2 ± 0.1 in series [2] (setting [8]); 1.4 ± 0.1 in series [2] (setting [6]); 1.1 ± 0.1 in series [2] (setting [7]).
With “I317C: Bacillus subtilis SAM synthase with position 317 substituted by cysteine; tolerably active enzyme”, the “activity (conversion)” value in series [5] (5 mM D,L-buthionine) was 6.0 ± 0.3 nmol/min/mg; in series [5] (5 mM D,L-ethionine), 16.4 ± 0.7 nmol/min/mg; in series [5] (5 mM D,L-methionine), 59.4 ± 0.4 nmol/min/mg; in series [5] (5 mM D,L-propionine), 8.4 ± 0.3 nmol/min/mg.
Take “I317V: I317V SAM synthase variant (SEQ ID NO: 3) of Bacillus subtilis SAM synthase”: the “substrate acceptance” value in series [1] is given as “also converts ethionine”. For the same substance, the results for the L-amino acid converted in series [4] (ethionine) and in series [4] (methionine) were 89% and 84%, respectively. Besides, the figures for the S0.5 in series [2] (substrate D,L-ethionine), in series [2] (substrate D,L-methionine) and in series [2] (substrate L-methionine) were 10.94 ± 2.70 mM, 1.71 ± 0.12 mM and 0.72 ± 0.04 mM, respectively. In addition, the Vmax stood at 51.2 ± 9.1 nmol/min/mg in series [2] (substrate D,L-ethionine), 446.2 ± 13.8 nmol/min/mg in series [2] (substrate D,L-methionine) and 408.0 ± 7.7 nmol/min/mg in series [2] (substrate L-methionine). Moreover, the h stood at 1.3 ± 0.1 in series [2] (substrate D,L-ethionine), 1.3 ± 0.1 in series [2] (substrate D,L-methionine) and 1.2 ± 0.1 in series [2] (substrate L-methionine).
In the case of “Wild-type: wildtype Bacillus subtilis S-Adenosylmethionine (SAM) synthase, SEQ ID NO: 1, recombinantly expressed in E. coli BL21 (DE3) [reference compound]”, in series [3], the “product inhibition by SAM” value is reported as “inhibited by its product SAM”. Also, the “substrate acceptance” value in series [1] is listed as “did not accept any of these methionine derivatives”. Also, the “inhibition by the D-enantiomer of methionine” value in series [2] (FIG. 3A, in words) is “not inhibited by the D-enantiomer of methionine”. Moreover, in series [2] (substrate D,L-methionine), the S0.5 stood at 1.92 ± 0.12 mM, the Vmax was 90.8 ± 1.6 nmol/min/mg and the h is reported as 1.7 ± 0.2. In series [2] (setting [9]), the S0.5 was determined as 1.86 ± 0.07 mM, the Vmax is 79.8 ± 2.3 nmol/min/mg and the h is 2.2 ± 0.2. In addition, in series [2] (substrate L-methionine), the S0.5 stood at 1.04 ± 0.14 mM, the Vmax turned out to be 93.2 ± 3.1 nmol/min/mg and the h is given as 1.1 ± 0.1.
